For 2 compounds, Ki results are on record in BindingDB's records for doi:10.1016/j.bmcl.2003.10.011 (University of Hamburg, 2003).

This experiment has as its target Alpha-galactosidase (Aspergillus niger). The experiment in a line: Compound tested for inhibition of alpha-galactosidase from Aspergillus niger.

Usually Ki stands for a dissociation constant, usually derived from enzyme kinetics or from competition with a known ligand. A low value points to higher affinity. In turn, `C[C@@H](OC[C@H]1O[C@@H](O)[C@H](O)[C@H](O)[C@@H]1O)[C@H](N)C(=O)O` [2-(R)-Amino-3-(3,4,5,6-tetrahydroxy-tetrahydro-pyran-2-ylmethoxy)-butyric acid] returned a Ki of 300 µM.

Compound `N[C@@H](COC[C@H]1O[C@@H](O)[C@H](O)[C@H](O)[C@@H]1O)C(=O)O` [2-Amino-3-(3,4,5,6-tetrahydroxy-tetrahydro-pyran-2-ylmethoxy)-propionic acid] yielded a Ki of 400 µM.
